From patent publication US11420962B2, “Indene derivatives useful in treating pain and inflammation” (TARO PHARMACEUTICALS INC., priority 2018, dated 2022)

Key:
[1] = Metabolism by human liver microsomes; format: in vitro ADME; conditions: Table 8; 10 µM, in the presence of NADPH, 1 mg/mL protein
Procedure, shortened: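 Compound at 10 μM preincubated 10 min at 37 °C with human liver microsomes (1 mg/mL protein), 100 mM Tris HCl pH 7.5; started with 1 mM NADPH, run 60 min. Percent remaining at 60 min versus 0-time by LC-MS/MS analyte/internal-standard ratio, scored in bands.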

Rat DRG = assay: Rat dorsal root ganglion excitability response (EFS, Ca2+ transients); format: cell-based; conditions: Rattus norvegicus; Table 3; electrical field stimulation, Ca5 indicator; read-out: Scoring (EC50, Rat DRG excitability)
Procedure, shortened: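 Adult rat DRG cells cultured for 2 days were loaded with the Ca5 dye 1 h before electrical field stimulation under four protocols. Compounds were tested at six concentrations (typically top 30 μM, 1:3 steps, duplicate), added either 24 h before or directly before EFS. The read-out was the per-well peak/baseline fluorescence ratio change, with imaging used to check for toxicity.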

T cells = assay: T cell proliferation (anti-CD3/anti-CD28 dynabeads, CCK-8); format: cell-based, mice; conditions: Table 4, mouse T cells, 72 hours after dynabeads, read-out: Scoring (IC50, cell proliferation)
Protocol: Spleens were obtained from six male, CD-1 outbred mice, approximately 8 weeks old. Cells were harvested under sterile conditions by forcing each spleen though a cell filter (pore size 100 μm diameter). A homogenous cell suspension was obtained by washing the cells in fresh medium and passing cells through a smaller cell filter (pore size 70 μm).
Untouched T cells were isolated using the Pan T cell isolation kit (Miltenyi Biotech). Briefly, cells were counted and incubated with the required volume of antibody cocktail for 5 minutes at 4° C. before addition of microbeads and incubation for 10 minutes at 4° C. Labeled cells were retained in a magnetic column while unlabeled cells (T cells) passed through the column and were retained for use in the assay.
Cell viability was assessed by Trypan Blue exclusion and found to be >99% prior to transfer to plates. Isolated T cells were seeded out in 96 well plates at a density of 50,000 cells per well and allowed to incubate for 60 minutes in a humidified cell culture (37° C., 5% CO2) incubator prior to compound treatment. The media used for this assay (TexMACS, Miltenyi Biotech) was previously optimized for proliferation of T cells in serum free conditions.
Representative compounds of the invention (i.e., test compounds) were prepared as 30 mM stocks in 100% DMSO. Test compounds were initially diluted in media to yield 3 mM stocks before an additional 1:10 dilution in media was performed to yield working stocks of 300 μM (1% DMSO). Subsequent dilutions were performed in media (supplemented with 1% DMSO). When added to the assay plates (1:10 dilution), these yielded final concentrations in the assay plates of in 0.1% DMSO. The reference compound, Cyclosporin A, was prepared in an identical manner as above.
Unstimulated and Stimulated Control wells received an identical volume of TexMACS media/1% DMSO at this time, resulting in a final concentration of 0.1% DMSO across the plate. Mouse anti-CD3/anti-CD28 dynabeads were prepared (following the manufacturers' instructions) in TexMACS media and added to appropriate wells to achieve a final concentration of 1 bead per cell. Unstimulated Control wells then received an identical volume of TexMACS. Plates were centrifuged 72 hours after addition of dynabeads, (300×g for 3 minutes) to pellet the cells and 60% of the supernatant was removed to a fresh plate for analysis by ELISA. After removal of 60% of the supernatant for subsequent ELISA, cell proliferation was assessed using the CCK-8 assay.
Average response by the standard compound, cyclosporin A, was 1 uM.

Mice (male, C57Bl/6) [2] = assay: Formalin pain assay in mice; format: in vivo; conditions: Table 7; formalin 2.5%, left plantar
Protocol: Mice (male, C57BL/6) were placed singly in a Perspex chamber for approximately 30 min on three successive days to acclimate and thereby reduce stress-induced behaviors. On the fourth day, the experimental animals received a 25 μl injection of 2.5% formalin beneath the left plantar skin using a 29-gauge syringe. […] The total time spent on flinches/licking/biting of the hind paw was recorded by visual observation for every 5 min period/interval for total observation duration of 60 min in two phases, the early phase (0-5 min) and the late phase (15-40 min). Observers were blinded to the treatment group allocation.
For test compounds, the % protection from 0-60 min was used to assess activity. Scoring for the test compounds was as follows: “A” represents a % protection of 81 to 100%, “B” represents a % protection of 61 to 80%, “C” represents a % protection of 31 to 60% and “D” represents a % protection of 0 to 30%.

[3] = tested on: Rats (male, Sprague-Dawley); assay: Rat carrageenan-induced hyperalgesia and paw edema; format: in vivo; conditions: 10 mg/kg, given 1 h prior to carrageenan challenge
Protocol: Representative compounds of the invention (i.e., test compounds) were administered PO, QD for 3 days prior to carrageenan injection, once at 1 h prior to carrageen, or at 5 min or 1 h post-challenge to rats (male, Sprague-Dawley). Rats received either an intraplantar injection of saline (sham) or carrageen (0.1 mL of a 2% solution [w/v]) in the right hind paw. Mechanical hyperalgesia (using an analgesymeter) and paw volume (using a digital plethysmometer) were measured at baseline (0 hr), 2, 4 and 6 h post carrageenan injection for all the animals. Celecoxib, given 1 h prior to carrageen challenge, was used as a reference standard.

rats (male, Wistar) [4] = assay: Complete Freund's Adjuvant (CFA) model of inflammatory pain in rats; format: in vivo; conditions: 30 mg/kg dose
Protocol: Representative compounds of the invention (i.e., test compounds) were tested in this model of inflammatory pain. The rats (male, Wistar) were acclimatized to the instruments (plantar test surface and dynamic plantar aesthesiometer) on two consecutive days prior to the initiation of the study. On Day 0, basal paw withdrawal latency and paw withdrawal threshold were taken and animals were randomized to different groups. Complete Freund's Adjuvant (CFA) at 1 mg/mL (0.1 mL) was injected into the plantar surface of right hind paw. Test compounds (3 or 30 mg/kg) were administered PO, twice (Day 0 and Day 1) or once, on Day 1 (24 h after CFA). Thermal hyperalgesia and mechanical allodynia were assessed at 0 (baseline), 1, 3 and 6 h after administration of the test compound on Day 1. Diclofenac was used as a reference compound, given once on Day 1.

[5] = tested on: female Sprague-Dawley rats; assay: Cyclophosphamide-induced cystitis in rats (visceral pain); format: in vivo; conditions: 300 mg/kg dose
Protocol: Representative compounds of the invention (i.e., test compounds) were administered to female Sprague-Dawley rats, for four days by oral gavage in 0.9% saline. Two hours after the fourth dose, the rats were challenged by intraperitoneal administration of cyclophosphamide (150 mg/kg). Referred mechanical sensitivity was measured four hours later by applying a series of eight von Frey filaments to the lower abdomen, three times each for 1-2 seconds with a 5 second interval between applications. Responses were scored (zero-no response; one-response, two-response and change of position, and three-response, change of position and licking the site or vocalization), totaled and the percent of maximal possible nociceptive score calculated. Ibuprofen was used as a reference standard.

male Sprague-Dawley rats = assay: Rat chronic prostatitis/chronic pelvic pain (carrageenan); format: in vivo; conditions: 300 mg/kg
Protocol: Representative compounds of the invention (i.e., test compounds) were administered for 11 days by oral gavage in 0.9% saline (3, 10 or 30 mg/kg QD; 5 mL/kg dose volume) to male Sprague-Dawley rats. Carrageenan-mediated chronic prostatitis/chronic pelvic pain (CP/CPPS) established in rats (10 per group) by administration of an intraprostatic injection of carrageenan (˜12.5 μL/lobe of a 30 mg/mL solution) into both ventral prostate lobes, on Day 0. Referred mechanical sensitivity was measured on Days 0, 1, 3 and 7, 2 hours after test compound, or vehicle (saline) administration, by applying 6 von Frey filaments with increasing forces of 0.16-2 g to the scrotal skin area, 3 times each for 1-2 seconds, with a 5-second interval between applications. Responses were scored (zero-no response; one-reaction of the animal, two-jump, and three-licking the site) and expressed as the nociceptive threshold for each day of assessment. Ibuprofen was used as a reference standard.
According to the above assay, Compound Ia-1 restored nociceptive threshold to 65% of baseline on Day 3 at the 30 mg/kg dose as compared to the reference standard, ibuprofen (300 mg/kg), which restored the threshold to 120% of the baseline.

Mice (male, C57Bl/6) [6] = assay: Bleomycin lung fibrosis; format: in vivo
Text: Mice (male, C57BL/6) were randomized into treatment groups and fibrosis was induced by intratracheal administration of bleomycin. Treatment with representative compounds of the invention (i.e., test compounds) or reference standard (pirfenidone) was initiated on Day −1 and administered daily unto Day 7 or Day 21. For groups undergoing bronchoalveolar lavage (BAL), the trachea was cannulated and infused with ice cold Hank's Balanced Salt Solution (HBSS, pH 7.2). The collected lavage fluid was analyzed for cell numbers (total and differential counts) and levels of soluble TGFβ and collagen. For other groups, the lungs were either snap-frozen or formalin-fixed for further analyses.

[7] = tested on: Rats (male, Sprague-Dawley); assay: TNBS colitis assay in rats; format: in vivo; conditions: 10 mg/kg dose
Protocol: TNBS Colitis Assay of Representative Compounds in Rats Rats (male, Sprague-Dawley) were anaesthetized and a solution of TNBS (48 mg/kg) in ethanol, was instilled intra-rectally to induce colitis, 1 h after oral dosing of representative compounds of the invention (i.e., test compounds). Test compounds were dosed PO, QD for 7 days, using prednisolone as a reference standard. […] On Day 7, rats were euthanized and the colon was evaluated for length, weight, wall thickness, ulcer number and length and for the presence of adhesions and strictures. A colonic score was calculated based on the severity of the colonic parameters.

rats (male, Wistar) [8] = assay: Rat monosodium iodoacetate-induced osteoarthritis; format: in vivo
Protocol: Representative compounds of the invention (i.e., test compounds) were administered to rats (male, Wistar) PO, QD, at 3 or 30 mg/kg, starting on Day 0 through to Day 21 of the study. Osteoarthritis was modeled by intra-articular injection of 3 mg of monosodium iodoacetate (MIA) in the right knee. Knee swelling, paw withdrawal threshold (mechanical allodynia) and the difference in weight bearing were measured on Day 0 (pre-induction) and on Days 3, 7, 14 and 21 post-MIA injection. Tramadol was used as a reference standard.

[9] = tested on: Rats (male, Sprague-Dawley); assay: Spinal nerve ligation (neuropathic pain); format: in vivo; conditions: 10 mg/kg
Text: Rats (male, Sprague-Dawley) were anaesthetized and placed in a prone position and the left paraspinal muscles were separated from the spinous processes at the L6-S2 levels. The L6 transverse process was carefully removed to visually identify the L4-L6 spinal nerves. The left L5 spinal nerves were isolated and tightly ligated with 6-0 silk thread. The skin was sutured to close the open tissue and animals were allowed to recover for 1 week before pain assessment. Basal readings for mechanical allodynia and thermal hyperalgesia were performed using a dynamic plantar aesthesiometer and plantar test surface, respectively, before surgery. On Day 7 following surgery, mechanical allodynia and thermal hyperalgesia were assessed and animals were randomized into treatment groups based on these baseline readings. […] Thermal hyperalgesia and mechanical allodynia were tested at 0, 60 and 120 minutes post administration of compounds on Days 7 and 14.

C=C1CC[C@H]2[C@H](CNCc3ccc4c(c3)OC(F)(F)O4)[C@@H]([C@@]3(C)Cc4cn[nH]c4C[C@@H]3CO)CC[C@]12C [Ia-3, ((5R,6S)-5-((3aS,4R,5S,7aS)-4-((((2,2-difluorobenzo[d][1,3]dioxol-5-yl)methyl)amino)methyl)-7a-methyl-1-methyleneoctahydro-1H-inden-5-yl)-5-methyl-4,5,6,7-tetrahydro-1H-indazol-6-yl)methanol]
Scoring (% of drug remaining after 60 minutes, PDR60) [1]: D (a PDR^60 of 0 to 30%)
EC50 (Rat DRG): 2 to 6 µM
IC50 (T cells): < 2 µM

CC(C)CCC[C@@H](C)[C@H]1CC[C@H]2[C@H](CN)[C@@H]([C@@]3(C)Cc4cn[nH]c4C[C@@H]3CO)CC[C@]12C [Ia-6, ((5R,6S)-5-((1R,3aS,4S,5S,7aR)-4-(aminomethyl)-7a-methyl-1-((R)-6-methylheptan-2-yl)octahydro-1H-inden-5-yl)-5-methyl-4,5,6,7-tetrahydro-1H-indazol-6-yl)methanol]
Scoring (% of drug remaining after 60 minutes, PDR60) [1]: A (a PDR^60 of 81 to 100%)
Scoring (% protection from 0-60 min) (Mice (male, C57Bl/6) [2]): C (a % protection of 31 to 60%)
EC50 (Rat DRG): 6 to 15 µM
IC50 (T cells): < 2 µM

C=C1CC[C@H]2[C@H](CN)[C@@H]([C@@]3(C)Cc4c(C)n[nH]c4C[C@@H]3CO)CC[C@]12C [Ia-32, ((5R,6S)-5-((3aS,4R,5S,7aS)-4-(aminomethyl)-7a-methyl-1-methyleneoctahydro-1H-inden-5-yl)-3,5-dimethyl-4,5,6,7-tetrahydro-1H-indazol-6-yl)methanol]
Scoring (% of drug remaining after 60 minutes, PDR60) [1]: B (a PDR^60 of 61 to 80%)
Scoring (% protection from 0-60 min) (Mice (male, C57Bl/6) [2]): C (a % protection of 31 to 60%)
EC50 (Rat DRG): > 15 µM
IC50 (T cells): 6 to 15 µM

Cc1ccc(-c2cc(C(F)(F)F)nn2-c2ccc(S(N)(=O)=O)cc2)cc1 [celecoxib, reference compound]
increase in the paw withdrawal threshold [3]: 59%

O=C(O)Cc1ccccc1Nc1c(Cl)cccc1Cl [diclofenac, reference compound]
increase in the paw withdrawal threshold (rats (male, Wistar) [4]): 62%

CC(C)Cc1ccc(C(C)C(=O)O)cc1 (stereo not drawn) [ibuprofen, reference compound]
nociceptive threshold, % of baseline levels [5]: 123%
nociceptive threshold restored, % of the baseline (male Sprague-Dawley rats): 120%

Cc1ccc(=O)n(-c2ccccc2)c1 [pirfenidone, reference compound]
reduction in BAL macrophages (Mice (male, C57Bl/6) [6]; Day 7, 100 mg/kg dose): 30%
reduction in fibrosis (Mice (male, C57Bl/6) [6]; Day 14, 100 mg/kg dose): 46%

C[C@]12C=CC(=O)C=C1CC[C@@H]1[C@@H]2[C@@H](O)C[C@@]2(C)[C@H]1CC[C@]2(O)C(=O)CO [prednisolone, reference compound]
reduction of the colonic score [7]: 68%

COc1cccc(C2(O)CCCCC2CN(C)C)c1 (stereo not drawn) [tramadol, reference compound]
reduction difference in weight bearing as compared to the vehicle (rats (male, Wistar) [8]; 10 mg/kg): 79%
reduction in knee diameter as compared to the vehicle (rats (male, Wistar) [8]; Day 3, 30 mg/kg): 11%
overall increase in paw withdrawal threshold as compared to the vehicle [9]: 77%
